# From patent US20240409536A1, “COMPOUNDS AND METHODS FOR MODULATING SPLICING” (REMIX THERAPEUTICS INC., priority 2021, published 2024)
# Legend:
# [1] = tested on: MYB mRNA; assay: Gene panel canonical junction qPCR assay, MYB CJ mRNA decrease; assay type: cell-based, human; conditions: Homo sapiens, canonical junction qPCR, read-out: MYB IC50 (decrease in CJ mRNA levels)
# Procedure, shortened: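 IC50 values describe loss of canonical-junction transcript, fitted by 4-parameter logistic to percent response derived from fixed ΔCt windows. Read-out: RT-qPCR on lysates of compound-treated K562 or A673 cells, probes overlapping the exon junction, ΔΔCt versus housekeeping gene and DMSO control.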
# [2] = tested on: Target C; assay: HiBiT protein abundance assay, Target C (K562 HiBiT knock-in cells); assay type: cell-based, human; conditions: 24 hours
# Experimental: • Promega Nano-Glo HiBiT Lytic Detection System (cat #N3030) • Corning 384-well TC-treated microplates (cat #3570) • Synthego Engineered Cells Knock-In Clones
# Cells were maintained in IMDM with 10% FBS. Before the assay, cells were diluted with […] growth media (IMDM+1% FBS media) and were seeded in a 384-well plate at a density of 10000 cells/well (for each cell line listed in Table 6). Each compound was prepared as a 10-point 3-fold serial dilution in DMSO with the top dose at a final concentration of 10 μM in the well. Unmodified K562 cells were added at the previously specified density with DMSO to serve as an assay baseline and positive control (PC) and DMSO only with the respective modified cell lines was added to the negative control (NC) columns. Final DMSO concentration was kept at or below 0.25%. Treated cell plates were placed in an incubator at 37° C. with 5% CO2 for 24 hours. After 24 hours, 25 μL of Complete HiBit Lytic reagent was added to each well at room temperature (e.g. one plate requiring 10 mL Lytic Buffer, 100 μL LgBiT Protein, 200 μL Lytic Substrate), shaken for 5 minutes at 600 RPM, then left to sit for 10 minutes for signal to stabilize before reading on a Spark Cyto plate reader (Tecan) with a 500 ms measurement time.
# To determine compound effects on protein abundance of each target in Table 6, the percent response for each respective cell line was calculated at each compound concentration as follows:
# For the normalized response at each concentration, a four-parameter logistical regression was fit to the data and the response was interpolated at the 50% value to determine a concentration for protein abundance at 50% (IC50) the untreated control.
Compound,IC50 [1],IC50 [2]
Cc1cn2cc(NC(=O)c3ccc(N4C[C@@H](C)N[C@@H](C)C4)c4ncc(OC5CC5)nc34)cc(F)c2n1 [Compound 351],0.1 to 1 µM,> 10 µM
Cc1nc2c(F)cc(NC(=O)c3ccc(N4CCNCC4)c4ccnnc34)cc2s1 [Compound 118],0.1 to 1 µM,0.1 to 1 µM
"Cc1cn2cc(NC(=O)c3ccc(N4CCN5CCOC[C@@H]5C4)c4nccnc34)cc(F)c2n1 [Compound 255, (S)—N-(8-fluoro-2-methylimidazo[1,2-a]pyridin-6-yl)-8-(hexahydropyrazino[2,1-c][1,4]oxazin-8(1H)-yl)quinoxaline-5-carboxamide]",0.1 to 1 µM,0.1 to 1 µM
"Cc1cn2cc(NC(=O)c3ccc(N4C5CNCC54)c4nccnc34)cc(F)c2n1 (stereo not drawn) [Compound 262, 8-{3,6-diazabicyclo[3.1.0]hexan-6-yl}-N-{8-fluoro-2-methylimidazo[1,2-a]pyridin-6-yl}quinoxaline-5-carboxamide]",0.1 to 1 µM,0.1 to 1 µM
Cc1cn2cc(NC(=O)c3ccc(N4CCNCC4)c4nccnc34)cc(F)c2n1 [Compound 111],0.1 to 1 µM,1 to 10 µM
"Cc1cn2cc(NC(=O)c3ccc(N4CC[C@@H](N(C)C)C4)c4nccnc34)cc(F)c2n1 [Compound 242, 8-[(3R)-3-(dimethylamino)pyrrolidin-1-yl]-N-{8-fluoro-2-methylimidazo[1,2-a]pyridin-6-yl}quinoxaline-5-carboxamide]",0.1 to 1 µM,> 10 µM
Cc1cn2cc(NC(=O)c3ccc(N4CC[C@@H](N)C4)c4nccnc34)cc(F)c2n1 [Compound 315],0.1 to 1 µM,1 to 10 µM
Cc1cn2cc(NC(=O)c3ccc(N4CCN(CCO)C5(CC5)C4)c4nccnc34)cc(F)c2n1 [Compound 369],0.1 to 1 µM,1 to 10 µM
"CN[C@@H]1CCN(c2ccc(C(=O)Nc3cc(F)c4nc(C)cn4c3)c3nnccc23)C1 [Compound 238, (R)—N-(8-fluoro-2-methylimidazo[1,2-a]pyridin-6-yl)-5-(3-(methylamino)pyrrolidin-1-yl)cinnoline-8-carboxamide]",< 0.1 µM,1 to 10 µM
CCN1CCN(c2ccc(C(=O)Nc3cc(F)c4nc(C)cn4c3)c3nccnc23)CC12CC2 [Compound 365],0.1 to 1 µM,1 to 10 µM
Cc1cn2cc(NC(=O)c3ccc(N4CC(C)NC(C)C4)c4nc(C)c(C)nc34)cc(F)c2n1 (stereo not drawn) [Compound 257],0.1 to 1 µM,1 to 10 µM
Cc1cn2cc(NC(=O)c3ccc(N4CCNC5(CCC5)C4)c4nccnc34)cc(F)c2n1 [Compound 363],0.1 to 1 µM,1 to 10 µM
Cc1cn2cc(NC(=O)c3ccc(N4CC[C@@H](N)C4)c4ccnnc34)cc(F)c2n1 [Compound 270],0.1 to 1 µM,1 to 10 µM
Cc1cn2cc(NC(=O)c3ccc(N4CCNCC4)c4ccnnc34)c(C)cc2n1 [Compound 119],1 to 10 µM,1 to 10 µM
"Cc1cn2cc(NC(=O)c3ccc(N4C[C@@H](C)N[C@@H](C5CC5)C4)c4nccnc34)cc(F)c2n1 [Compound 266, 8-((3S,5R)-3-cyclopropyl-5-methylpiperazin-1-yl)-N-(8-fluoro-2-methylimidazo[1,2-a]pyridin-6-yl)quinoxaline-5-carboxamide]",< 0.1 µM,0.1 to 1 µM
Cc1cn2cc(NC(=O)c3ccc(N4CCC5(CCN5)C4)c4nccnc34)cc(F)c2n1 (stereo not drawn) [Compound 339],0.1 to 1 µM,1 to 10 µM
"Cc1cn2cc(NC(=O)c3ccc([C@@]45CCNCC4C5)c4nccnc34)cc(F)c2n1 (stereo in doubt) [Compound 248, 8-{3-azabicyclo[4.1.0]heptan-6-yl}-N-{8-fluoro-2-methylimidazo[1,2-a]pyridin-6-yl}quinoxaline-5-carboxamide 2,2,2-trifluoroacetate]",0.1 to 1 µM,> 10 µM
Cc1cn2cc(NC(=O)c3ccc(N4CCNCC4)c4ccnnc34)ncc2n1 [Compound 120],0.1 to 1 µM,> 10 µM
Cc1cn2cc(NC(=O)c3ccc(N4C[C@@H](C)N[C@@H](C)C4)c4ncccc34)cc(F)c2n1 [Compound 358],> 10 µM,> 10 µM
"Cc1cn2cc(NC(=O)c3ccc(N4CCC(NC5CC5)CC4)c4nccnc34)cc(F)c2n1 [Compound 258, 8-(4-(cyclopropylamino)piperidin-1-yl)-N-(8-fluoro-2-methylimidazo[1,2-a]pyridin-6-yl)quinoxaline-5-carboxamide]",0.1 to 1 µM,0.1 to 1 µM
"COc1cnc2c(N3CC[C@@H](N(C)C)C3)ccc(C(=O)Nc3cc(F)c4nc(C)cn4c3)c2n1 [Compound 244, 8-[(3R)-3-(dimethylamino)pyrrolidin-1-yl]-N-{8-fluoro-2-methylimidazo[1,2-a]pyridin-6-yl}-3-methoxyquinoxaline-5-carboxamide]",< 0.1 µM,0.1 to 1 µM
Cc1cn2cc(NC(=O)c3ccc(N4CCNCC4)c4nncnc34)cc(F)c2n1 [Compound 345],0.1 to 1 µM,1 to 10 µM

# Second part, the compound after the results:
IC50 [1],IC50 [2],Compound
0.1 to 1 µM,1 to 10 µM,C[C@@H]1CN(c2ccc(C(=O)Nc3cc(F)c4nc(Cl)cn4c3)c3nccnc23)C[C@H](C)N1 [Compound 306]
< 0.1 µM,0.1 to 1 µM,Cc1cn2cc(NC(=O)c3ccc(N4C[C@@H](C)N[C@@H](C)C4)c4ncc(N(C)C)nc34)cc(F)c2n1 [Compound 283]
> 10 µM,> 10 µM,C[C@@H]1CN(c2ccc(C(=O)Nc3cc(F)c4nc(O)cn4c3)c3nccnc23)C[C@H](C)N1 [Compound 360]
0.1 to 1 µM,1 to 10 µM,C[C@@H]1CN(c2ccc(C(=O)Nc3cc(F)c4nn(C)cc4c3)c3nccnc23)C[C@@H](C)N1 [Compound 335]
> 10 µM,> 10 µM,COc1nc2c(F)cc(NC(=O)c3ccc(N4C[C@@H](C)N[C@@H](C)C4)c4nccnc34)cc2o1 [Compound 342]
< 0.1 µM,1 to 10 µM,Cc1cn2cc(NC(=O)c3ccc(N4C[C@@H](C)N[C@H](C)C4)c4nccnc34)cc(F)c2n1 [Compound 312]
< 0.1 µM,> 10 µM,Cc1cn2cc(NC(=O)c3ccc(N4C[C@@H](C)N[C@@H](C)C4)c4nccnc34)cc(Cl)c2n1 [Compound 304]
1 to 10 µM,> 10 µM,CNc1nc(NC(=O)c2ccc(N3C[C@@H](C)N[C@@H](C)C3)c3nccnc23)cn2cc(C)nc12 [Compound 308]
1 to 10 µM,1 to 10 µM,COc1nc2ccc(NC(=O)c3ccc(N4C[C@@H](C)N[C@@H](C)C4)c4nccnc34)cc2o1 [Compound 292]
1 to 10 µM,> 10 µM,COc1nc(NC(=O)c2ccc(N3C[C@@H](C)N[C@@H](C)C3)c3nccnc23)nc2cn(C)nc12 [Compound 287]
1 to 10 µM,> 10 µM,C[C@@H]1CN(c2ccc(C(=O)Nc3ccc4nc(N(C)C)oc4c3)c3nccnc23)C[C@H](C)N1 [Compound 290]
0.1 to 1 µM,0.1 to 1 µM,"COc1cc2c(N3C[C@@H](C)N[C@@H](C)C3)ccc(C(=O)Nc3cc(F)c4nc(C)cn4c3)c2nn1 [Compound 273, 5-[(3R,5S)-3,5-dimethylpiperazin-1-yl]-N-{8-fluoro-2-methylimidazo[1,2-a]pyridin-6-yl}-3-methoxycinnoline-8-carboxamide]"
< 0.1 µM,1 to 10 µM,COc1nc(NC(=O)c2ccc(N3C[C@@H](C)N[C@@H](C)C3)c3nccnc23)cn2cc(C)nc12 [Compound 277]
> 10 µM,> 10 µM,COc1cn2cc(NC(=O)c3ccc(N4C[C@@H](C)N[C@@H](C)C4)c4nccnc34)cc(F)c2n1 [Compound 357]
1 to 10 µM,1 to 10 µM,Cc1cn2cc(NC(=O)c3ccc(N4C[C@@H](C)N[C@@H](C)C4)c4ncc(Cl)nc34)cc(F)c2n1 [Compound 281]
0.1 to 1 µM,0.1 to 1 µM,Cc1cn2nc(NC(=O)c3ccc(N4C[C@@H](C)N[C@@H](C)C4)c4nccnc34)cc2c(C)n1 [Compound 354]
< 0.1 µM,0.1 to 1 µM,CCOc1cnc2c(N3C[C@@H](C)N[C@@H](C)C3)ccc(C(=O)Nc3cc(F)c4nc(C)cn4c3)c2n1 [Compound 296]
0.1 to 1 µM,1 to 10 µM,COc1nc(NC(=O)c2ccc(N3C[C@@H](C)N[C@@H](C)C3)c3nccnc23)cc2cn(C)nc12 [Compound 352]
0.1 to 1 µM,1 to 10 µM,Cc1cn2c(C)c(NC(=O)c3ccc(N4C[C@@H](C)N[C@@H](C)C4)c4nccnc34)cc(F)c2n1 [Compound 285]
1 to 10 µM,> 10 µM,C[C@@H]1CN(c2ccc(C(=O)Nc3cc(F)c4ncccc4c3)c3nccnc23)C[C@H](C)N1 [Compound 344]
